Laboratory results as given in patent US20230091047A1 (priority 2019, published 2023).
Like-named read-outs stand apart in the source and are kept apart here.

Assays:
[1] = system: HBV (HepG2.117 cell line, inducibly HBV producing); assay: Anti-HBV activity: intracellular HBV DNA by real-time PCR in HepG2.117 cells after 3 days of treatment; format: cell-based, hepatitis B virus
Outline: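 Inducible HBV-producing HepG2.117 line (Tet-off); 3-day exposure to serially diluted compound after induction; real-time PCR of intracellular viral DNA.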

in vitro = format: cell-based; conditions: human, HepG2 or HepG2.117 cells, mean value
Outline: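 Luminescent ATP quantitation served as the viability endpoint following a 3- or 4-day incubation with test compounds.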

[2] = Hepatitis B virus, HepG2.117, 72 h, HepG2.117 cells, 3 days of treatment, intracellular HBV DNA by real-time PCR; mean value; read-out: EC50 (μM, mean value)
[3] = 3-days incubation (unmarked values), ATPlite
[4] = Hepatitis B virus, HepG2.117, 72 h, HepG2.117 cells, intracellular HBV DNA by real-time PCR, 3 days of treatment, mean value; read-out: EC50 (μM, mean value)
[5] = ATPlite, 3-days incubation (not marked with *)

SMILES	EC50 [1, 2] [µM]	CC50 at 3 days (in vitro; [3]) [µM]	EC50 [1, 4] [µM]	CC50 at 3 days (in vitro; [5]) [µM]	CC50 at 3 days (in vitro; 3-days incubation (unmarked values), ATPlite viability) [µM]
COc1ccc(CNc2nc3c(c(=O)n2-c2ccc(S(C)(=O)=O)cc2)C[C@@H](C)N(C(=O)c2ccc(Cl)c(Cl)c2)C3)cc1 [Compound C145, (6R)-7-(3,4-dichlorobenzoyl)-3-[4-(methanesulfonyl)phenyl]-2-{[(4-methoxyphenyl)methyl]amino}-6-methyl-5,6,7,8-tetrahydropyrido[3,4-d]pyrimidin-4(3H)-one]	0.31	> 42			
C#C[C@H]1CCCN1c1nc2c(c(=O)n1-c1ccc(C(=O)NC)cc1)C[C@@H](C)N(C(=O)c1ccc(Cl)c(Cl)c1)C2 (single isomer, unassigned) [Compound C350, 4-[(6R)-7-(3,4-dichlorobenzoyl)-2-[(2*R)-2-ethynylpyrrolidin-1-yl]-6-methyl-4-oxo-5,6,7,8-tetrahydropyrido[3,4-d]pyrimidin-3(4H)-yl]-N-methylbenzamide]	0.23	> 50			
COc1ccc(CN(C)c2nc3c(c(=O)n2-c2ccccc2OC)CCN(C(=O)c2ccc(Cl)c(Cl)c2)C3)cc1 [Compound C43, 7-(3,4-dichlorobenzoyl)-3-(2-methoxyphenyl)-2-{[(4-methoxyphenyl)methyl](methyl)amino}-5,6,7,8-tetrahydropyrido[3,4-d]pyrimidin-4(3H)-one]	5.64	> 50			
COc1ccc(CNc2nc3c(c(=O)n2-c2ccc(-n4cccn4)cc2)CCN(C(=O)c2ccc(Cl)c(Cl)c2)C3)cc1 [Compound C143, 7-(3,4-dichlorobenzoyl)-2-{[(4-methoxyphenyl)methyl]amino}-3-[4-(1H-pyrazol-1-yl)phenyl]-5,6,7,8-tetrahydropyrido[3,4-d]pyrimidin-4(3H)-one]	1.46	> 50			
CNC(=O)c1ccc(-n2c(NC[C@@H](C)c3cccc(OC)c3)nc3c(c2=O)C[C@@H](C)N(C(=O)c2ccc(Cl)c(Cl)c2)C3)cc1 (single isomer, unassigned) [Compound C436b]			0.36	22.3	
CNC(=O)c1ccc(-n2c(NC(C)C)nc3c(c2=O)C[C@@H](C)N(C(=O)c2ccc(Br)cc2)C3)cc1 [Compound C563]			0.26	> 50	
COc1ccccc1-n1c(NC2CCC2)nc2c(c1=O)CCN(C(=O)c1ccc(Cl)c(Cl)c1)C2 [Compound C32, 2-(cyclobutylamino)-7-(3,4-dichlorobenzoyl)-3-(2-methoxyphenyl)-5,6,7,8-tetrahydropyrido[3,4-d]pyrimidin-4(3H)-one]	19.9	29.5			
COc1ccc(CNc2nc3c(c(=O)[nH]2)C[C@H](C)N(C(=O)c2ccc(Cl)c(Cl)c2)C3)cc1 [Compound C63B, (6S)-7-(3,4-dichlorobenzoyl)-2-{[(4-methoxyphenyl)methyl]amino}-6-methyl-5,6,7,8-tetrahydropyrido[3,4-d]pyrimidin-4(3H)-one]	1.63	35.3			
CNC(=O)c1ccc(-n2c(NCc3ncnn3-c3ccccc3)nc3c(c2=O)C[C@@H](C)N(C(=O)c2ccc(Cl)c(Cl)c2)C3)cc1 [Compound C553]			23.7	> 50	
CNC(=O)c1ccc(-n2c(N[C@@H](C)c3nccs3)nc3c(c2=O)C[C@@H](C)N(C(=O)c2ccc(Cl)c(Cl)c2)C3)cc1 (single isomer, unassigned) [Compound C434b]			0.84	> 50	
CNC(=O)c1ccc(-n2c(NC(C)C)nc3c(c2=O)C[C@@H](C)N(C(=O)c2ccc(Cl)c(C#N)c2)C3)cc1 [Compound C686]			0.2	> 50	
COc1ccc(CNc2nc3c(c(=O)n2C2CCN(S(C)(=O)=O)CC2)CCN(C(=O)c2ccc(Cl)c(Cl)c2)C3)cc1 [Compound C66, 7-(3,4-dichlorobenzoyl)-3-[1-(methanesulfonyl)piperidin-4-yl]-2-{[(4-methoxyphenyl)methyl]amino}-5,6,7,8-tetrahydropyrido[3,4-d]pyrimidin-4(3H)-one]	0.77	> 50			
CNC(=O)c1ccc(-n2c(NC(C)C)nc3c(c2=O)C[C@@H](C)N(C(=O)c2cnc4ccccc4n2)C3)cc1 [Compound C675]			1.6	> 50	
CNC(=O)c1ccc(-n2c(NC(C)C)nc3c(c2=O)C[C@@H](C)N(C(=O)c2cc(C#N)c[nH]2)C3)cc1 [Compound C496]			> 25	> 50	
CC(C)Nc1nc2c(c(=O)n1-c1ccc(Br)cc1)C[C@@H](C)N(C(=O)c1ccc(Cl)c(Cl)c1)C2 [Compound C183, (6R)-3-(4-bromophenyl)-7-(3,4-dichlorobenzoyl)-6-methyl-2-[(propan-2-yl)amino]-5,6,7,8-tetrahydropyrido[3,4-d]pyrimidin-4(3H)-one]	0.21	> 50			
CNC(=O)c1ccc(-n2c(N[C@@H](C)C3CC3)nc3c(c2=O)C[C@@H](C)N(C(=O)c2ccc(Cl)c(C(F)F)c2)C3)cc1 [Compound C699, 4-((R)-7-(4-chloro-3-(difluoromethyl)benzoyl)-2-(((S)-1-cyclopropylethyl)amino)-6-methyl-4-oxo-5,6,7,8-tetrahydropyrido[3,4-d]pyrimidin-3(4H)-yl)-N-methylbenzamide]	0.04				> 50
CC(C)Nc1nc2c(c(=O)n1-c1cccc(-n3ccnn3)c1)C[C@@H](C)N(C(=O)c1ccc(Cl)c(Cl)c1)C2 [Compound C442]			0.21	> 50	
Cc1coc2ccc(C(=O)N3CCc4c(nc(NC(C)C)n(-c5ccc(S(C)(=O)=O)cc5)c4=O)C3)cc12 [Compound C224, 3-[4-(methanesulfonyl)phenyl]-7-(3-methyl-1-benzofuran-5-carbonyl)-2-[(propan-2-yl)amino]-5,6,7,8-tetrahydropyrido[3,4-d]pyrimidin-4(3H)-one]	6.71	> 50			
CNC(=O)c1ccc(-n2c(N(C)Cc3cn(C)nn3)nc3c(c2=O)C[C@@H](C)N(C(=O)c2ccc(Cl)c(Cl)c2)C3)cc1 [Compound C479]			3.81	> 50	
COc1ccc(CNc2nc3c(c(=O)n2-c2ccc(Br)cc2)CCN(C(=O)c2ccc(Cl)c(Cl)c2)C3)cc1 [Compound C125, 3-(4-bromophenyl)-7-(3,4-dichlorobenzoyl)-2-{[(4-methoxyphenyl)methyl]amino}-5,6,7,8-tetrahydropyrido[3,4-d]pyrimidin-4(3H)-one]	1.64	> 50			
CNC(=O)c1ccc(-n2c(N[C@@H](C)c3ccccc3C(F)(F)F)nc3c(c2=O)C[C@@H](C)N(C(=O)c2ccc(Cl)c(Cl)c2)C3)cc1 [Compound C443]			0.45	7.2	
CNC(=O)c1ccc(-n2c(OC(C)C)nc3c(c2=O)C[C@@H](C)N(C(=O)c2ccc(Cl)c(Cl)c2)C3)cc1 [Compound C289, 4-[(6R)-7-(3,4-dichlorobenzoyl)-6-methyl-4-oxo-2-[(propan-2-yl)oxy]-5,6,7,8-tetrahydropyrido[3,4-d]pyrimidin-3(4H)-yl]-N-methylbenzamide]	0.08	> 50			
CC(C)Nc1nc2c(c(=O)n1-c1ccc(S(C)(=O)=O)cc1)CCN(C(=O)c1cc(Cl)c(Cl)s1)C2 [Compound C181, 7-(4,5-dichlorothiophene-2-carbonyl)-3-[4-(methanesulfonyl)phenyl]-2-[(propan-2-yl)amino]-5,6,7,8-tetrahydropyrido[3,4-d]pyrimidin-4(3H)-one]	2.56	> 50			
CC(C)Nc1nc2c(c(=O)n1-c1ccc(S(C)(=O)=O)cc1)[C@@H](C)CN(C(=O)c1ccc(Cl)c(Cl)c1)C2 (single isomer, unassigned) [Compound C154A, (*R)-7-(3,4-dichlorobenzoyl)-2-(isopropylamino)-5-methyl-3-(4-(methylsulfonyl)phenyl)-5,6,7,8-tetrahydropyrido[3,4-d]pyrimidin-4(3H)-one]	1.32	> 50			
COc1ccc(CNc2nc3c(c(=O)[nH]2)CCN(C(=O)c2ccc(Br)c(C#N)c2)C3)cc1 [Compound C105, 2-bromo-5-[2-{[(4-methoxyphenyl)methyl]amino}-4-oxo-4,5,6,8-tetrahydropyrido[3,4-d]pyrimidine-7(3H)-carbonyl]benzonitrile]	6.81	> 50			
CNC(=O)c1ccc(-n2c(NCc3nnc4n3CCC4)nc3c(c2=O)C[C@@H](C)N(C(=O)c2ccc(Cl)c(Cl)c2)C3)cc1 [Compound C483]			> 12.5	> 25	
CNC(=O)c1ccc(-n2c(N[C@@H](C)C3CC3)nc3c(c2=O)C[C@@H](C)N(C(=O)c2ccc(Cl)c(C(F)(F)F)c2)C3)c(Cl)c1 (single isomer, unassigned) [Compound C676a]			0.03	> 50	
C[C@H](Nc1nc2c(c(=O)n1-c1ccc(-n3cccn3)cc1)C[C@@H](C)N(C(=O)c1ccc(Cl)c(Cl)c1)C2)c1ccc(C(F)(F)F)cc1 [Compound C532]			0.16	> 50	
CNC(=O)c1ccc(-n2c(N[C@@H]3CCO[C@H]3c3ccccc3)nc3c(c2=O)C[C@@H](C)N(C(=O)c2ccc(Cl)c(Cl)c2)C3)cc1 [Compound C466]			1.43	31.5	
CC(C)Nc1nc2c(c(=O)n1-c1ccc(C(=O)NC3COC3)cc1)C[C@@H](C)N(C(=O)c1ccc(Cl)c(Cl)c1)C2 [Compound C209, 4-[(6R)-7-(3,4-dichlorobenzoyl)-6-methyl-4-oxo-2-[(propan-2-yl)amino]-5,6,7,8-tetrahydropyrido[3,4-d]pyrimidin-3(4H)-yl]-N-(oxetan-3-yl)benzamide]	0.82	> 50			
